Experimental data reported in patent US20030228281A1, “Use of mutant herpes viruses and anticancer agents in the treatment of cancer” (priority 2000, published 2003).

Key:
G207 = assay: Effect of HU and FUdR on G207 replication in HCT8 cells; assay type: cell-based, herpes simplex virus (HSV) type 1
Method: FIG. 4 depicts the results of experiments showing the effects of FUdR and HU on viral replication. HCT8 cells were infected with 2 pfu of G207 per cell. After adsorption of 1 hour at 37° C. inoculum was removed, cells were washed with PBS, and medium containing 10 nM FUdR or control medium without FUdR was added. At 8 hours pi, infected cells in presence and absence of FUdR were exposed to 1 mM HU. At 36 hours pi cells and supernatant were harvested and lysates were prepared by three cycles of freezing and thawing. Viral titers (A) and β-galactosidase activity (B) of the lysate were determined. All assays were performed in triplicates for each condition (avg ± SEM).
Vero cultures were carried for at least one subculture in E-MEM, 2 mM L-glutamine, 10% FCS. Cultures were plated at a density of 1×10^6 cells per well of 6-well plates and incubated at 37° C. in 5% CO2 in air in a humidified incubator. The following day, cultures were washed 2× with PBS, and serial dilutions of cell lysates (0.8 ml/well) were adsorbed onto triplicate dishes for 4 hours at 37° C. Cell lysates were prepared by 4 freeze-thaw cycles. Following adsorption, inoculum was removed, and cultures were overlaid with agar containing medium. Cultures were stained with neutral red 2 days post-inoculation, and plaque formation was assessed the next day.

[1] = test system: β-galactosidase expression; assay: β-galactosidase activity (lacZ reporter gene in G207) in infected cells; assay type: cell-based; settings: HCT8, 2 pfu G207 per cell, 10 nM FUdR, 1 mM HU from 8 hours pi, 36 hours pi
Method: FIG. 2 depicts the results of experiments showing the influence of FUdR on β galactosidase expression following infection with G207. Cells (2×10^4) were plated in 24-well plates, and were infected with G207 at an MOI of 0.01 in presence (10 nM, oblique; 100 nM, black) and absence (white) of FUdR. At day 3 following infection, cells were lysed and total β-galactosidase activity of cell lysates was measured (A). Cell counts for each condition were determined in additional wells by trypan blue exclusion and specific activity was calculated by referring total activity to viable cell number (B). All assays were performed in triplicates (avg ± SEM). For lacZ staining 3×10^5 cells were plated onto 25 cm^2 flasks. Twelve hours later cells were infected with G207 in the presence and absence of FUdR under the same conditions as described above. At day 3 pi, cytospin slides were prepared and stained with X-gal for lacZ expression.
FIG. 4 depicts the results of experiments showing the effects of FUdR and HU on viral replication. […] Viral titers (A) and β-galactosidase activity (B) of the lysate were determined. […]
Activity of β-galactosidase was determined by monitoring the conversion of o-nitrophenyl galactoside (ONPG) to o-nitrophenol and galactose (β-Galactosidase Reporter Assay, Pierce, Rockford, Ill.). […] The reaction rate was determined by spectrophotometric measurement of o-nitrophenol at λ=405 nm. […]

For NC(=O)NO [HU, hydroxyurea], the “Viral titer, cells treated with HU and FUdR” value (G207; 1 mM HU and 10 nM FUdR, 36 hours pi) was 2.1±0.5×10^4 pfu, the “Viral titer, cells treated with HU alone” value (G207; 1 mM HU from 8 hours pi, 36 hours pi) was 1.9±0.5×10^4 pfu and the “Suppression of viral replication” value (G207; 1 mM HU, HCT8 cells) was 90%. The “Effect on β-galactosidase expression” value [1] was “neither FUdR nor HU had significant effects”.
